According to ChEMBL document CHEMBL2311248, “Discovery of potent myeloid cell leukemia 1 (Mcl-1) inhibitors using fragment-based methods and structure-based design” (J Med Chem, 2013):

Assays:
[1] = target: Apoptosis regulator Bcl-2 (Homo sapiens, UniProt P10415)
Bcl-2-like protein 1 = Bcl-2-like protein 1 (Homo sapiens, UniProt Q07817)
[2] = target: Induced myeloid leukemia cell differentiation protein Mcl-1 (Homo sapiens, UniProt Q07820)
Induced myeloid leukemia cell differentiation protein Mcl-1, sequence (Q07820 whole entry): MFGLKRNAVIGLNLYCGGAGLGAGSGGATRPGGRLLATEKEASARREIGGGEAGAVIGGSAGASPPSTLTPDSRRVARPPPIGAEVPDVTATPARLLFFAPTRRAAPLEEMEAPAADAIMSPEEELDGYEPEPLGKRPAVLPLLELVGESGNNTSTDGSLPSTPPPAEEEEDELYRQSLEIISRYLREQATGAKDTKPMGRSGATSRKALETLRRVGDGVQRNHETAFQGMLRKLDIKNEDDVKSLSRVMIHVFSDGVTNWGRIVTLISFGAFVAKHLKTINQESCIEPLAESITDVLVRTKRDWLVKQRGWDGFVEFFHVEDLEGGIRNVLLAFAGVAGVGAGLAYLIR

Apoptosis regulator Bcl-2, sequence (P10415 whole entry): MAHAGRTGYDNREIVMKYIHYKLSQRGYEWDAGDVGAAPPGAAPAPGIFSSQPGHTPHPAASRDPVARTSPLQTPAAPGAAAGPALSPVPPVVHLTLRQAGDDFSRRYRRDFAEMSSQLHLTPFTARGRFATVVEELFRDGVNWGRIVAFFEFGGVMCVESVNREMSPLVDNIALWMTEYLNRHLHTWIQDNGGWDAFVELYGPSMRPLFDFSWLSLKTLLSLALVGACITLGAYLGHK
Bcl-2-like protein 1, sequence (Q07817 whole entry): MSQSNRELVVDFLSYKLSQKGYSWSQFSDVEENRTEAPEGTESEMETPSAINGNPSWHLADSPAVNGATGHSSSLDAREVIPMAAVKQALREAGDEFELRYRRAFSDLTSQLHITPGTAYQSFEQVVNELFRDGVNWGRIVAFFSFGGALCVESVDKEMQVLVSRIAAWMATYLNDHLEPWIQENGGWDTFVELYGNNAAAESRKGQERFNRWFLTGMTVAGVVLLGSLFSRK

| Ki [2] | SMILES | Ki [1] | Ki (Bcl-2-like protein 1) |
| --- | --- | --- | --- |
| – | O=C(O)c1sc2cccc(Cl)c2c1Cl | > 1000 µM | > 1000 µM |
| 103 µM | Cc1cc(OCC(=O)O)ccc1Cl | > 1000 µM | > 1000 µM |
| 0.29 µM | O=C(O)c1c(CCCOc2cccc3ccccc23)c2ccccc2n1Cc1ccccc1 | > 15 µM | > 15 µM |
| – | Cc1cc(OCCCc2c(C(=O)O)sc3cc(Cl)ccc23)cc(C)c1Cl | 0.8 µM | 4.1 µM |
| – | O=C(O)c1sc2cc(Cl)ccc2c1CCCOc1cccc2ccccc12 | 0.96 µM | – |
| 1.2 µM | Cc1cc(OCCCn2c(C(=O)O)cc3ccccc32)ccc1Cl | – | – |
| 0.41 µM | Cc1cc(OCCCn2c(C(=O)O)cc3ccccc32)cc(C)c1Cl | – | – |
| 0.47 µM | O=C(O)c1cc2ccccc2n1CCCOc1cccc2ccccc12 | – | – |
| > 500 µM | NC(=O)c1cc2ccccc2n1CCCOc1cccc2ccccc12 | – | – |
| – | Cc1cc(OCCCc2c(C(=O)O)[nH]c3ccccc23)ccc1Cl | 9.1 µM | > 15 µM |
| – | Cc1cc(OCCCc2c(C(=O)O)[nH]c3ccccc23)cc(C)c1Cl | 5.3 µM | > 15 µM |
| – | Cc1cc(OCCCc2c(C(=O)O)[nH]c3cc(Cl)ccc23)ccc1Cl | 1.4 µM | > 15 µM |
| – | O=C(O)c1[nH]c2cc(Cl)ccc2c1CCCOc1cccc2ccccc12 | 0.96 µM | 6.8 µM |
| 0.066 µM | O=C(O)c1[nH]c2cc(Cl)ccc2c1CCCOc1cccc2c1CCCC2 | – | – |
| – | Cc1cc(OCCCc2c(C(=O)O)n(C)c3ccccc23)cc(C)c1Cl | 7.4 µM | > 15 µM |
| – | Cn1c(C(=O)O)c(CCCOc2cccc3ccccc23)c2ccccc21 | > 15 µM | > 15 µM |
| – | Cc1c(C(=O)O)oc2c(C)cccc12 | > 1000 µM | > 1000 µM |
| – | Cc1cccc2c(-c3ccccc3)c(C(=O)O)[nH]c12 | > 1000 µM | > 1000 µM |
| 86 µM | c1ccc2c(CSc3ncn[nH]3)cccc2c1 | > 1000 µM | > 1000 µM |
| 12.5 µM | O=C(O)c1sc2ccccc2c1CCc1cccc2ccccc12 | – | – |
| 9.6 µM | O=C(O)c1sc2ccccc2c1CCCc1cccc2ccccc12 | – | – |
| – | O=C(O)c1oc2ccccc2c1CCCOc1cccc2ccccc12 | 4.3 µM | – |
| – | Cc1ccc2c(Cl)c(C(=O)O)sc2c1 | > 1000 µM | 230 µM |
| > 1000 µM | O=C(O)c1cc2ccccc2o1 | – | – |

| SMILES | Ki [2] | Ki [1] | Ki (Bcl-2-like protein 1) |
| --- | --- | --- | --- |
| Cc1cc(OCCC(=O)O)cc(C)c1Cl | 60 µM | > 1000 µM | > 1000 µM |
| O=C(O)c1oc2ccccc2c1CCc1cccc2ccccc12 | 9.5 µM | – | – |
| O=C(O)c1oc2ccccc2c1CCCc1cccc2ccccc12 | 14.6 µM | – | – |
| O=C(O)c1cc2ccccc2[nH]1 [INDOLE-2-CARBOXYLIC ACID] | > 1000 µM | – | – |
